ChEMBL document CHEMBL1122054, “Lysosomotropic agents. 4. Carbobenzoxyglycylphenylalanyl, a new protease-sensitive masking group for introduction into cells” (J Med Chem, 1982)
Where a SMILES comes first, the peptide text is derived from it. [ ]: non-standard residue; d: D form. The star is where a group is joined. Cbz = O=C(OCc1ccccc1)*

What was measured:
[1] = species on record: Mus musculus; experiment: Cytotoxicity was determined for the compound against mouse peritoneal macrophages (MPM) at a concentration of 0.514 mM.; format: functional
[2] = species on record: Mus musculus; experiment: Cytotoxicity was determined against mouse peritoneal macrophages (MPM) and the percent of LDH released after 24 hr was determined as a measure of cell death at a concentration of 0.375 mM (expt II); format: functional
[3] = species on record: Mus musculus; experiment: Toxicity toward P-815 Mastocytoma cells after 5 hr was determined as percent of [51Cr]- release from labeled cells as a measure of cell death. at a concentration of 0.257 mM. (expt III); format: functional
[4] = species on record: Mus musculus; experiment: Cytotoxicity was determined for the compound against mouse peritoneal macrophages (MPM) at a concentration of 0.541 mM.; format: functional
[5] = species on record: Mus musculus; experiment: Cytotoxicity was determined against mouse peritoneal macrophages (MPM) and the percent of LDH released after 24 hr was determined as a measure of cell death at a concentration of 0.375 mM (expt I); format: functional
[6] = species on record: Mus musculus; experiment: Toxicity was evaluated for the compound at a concentration of 0.257 mM against […] Mastocytoma.; format: functional
[7] = species on record: Mus musculus; experiment: Toxicity toward P-815 Mastocytoma cells after 5 hr was determined as percent of [51Cr]- release from labeled cells as a measure of cell death. at a concentration of 0.282 mM. (expt III); format: functional
[8] = species on record: Mus musculus; experiment: Toxicity toward P-815 Mastocytoma cells after 5 hr was determined as percent of [51Cr]- release from labeled cells as a measure of cell death. at a concentration of 0.750 mM. (expt III); format: functional
[9] = species on record: Mus musculus; experiment: Appearance of mouse peritoneal macrophages after 3h of treatment with compound at a concentration of 0.375 mM; OK; format: functional, organism-based
[10] = species on record: Mus musculus; experiment: Toxicity toward P-815 Mastocytoma cells after 5 hr was determined as percent of [51Cr]- release from labeled cells as a measure of cell death. at a concentration of 0.208 mM. (expt III); format: functional
[11] = species on record: Mus musculus; experiment: Toxicity was evaluated for the compound at a concentration of 0.208 mM against […] Mastocytoma.; format: functional
[12] = species on record: Mus musculus; experiment: Toxicity toward P-815 Mastocytoma cells after 5 hr was determined as percent of [51Cr]- release from labeled cells as a measure of cell death. at a concentration of 0.281 mM. (expt IV); format: functional
[13] = species on record: Mus musculus; experiment: Cytotoxicity was determined against mouse peritoneal macrophages (MPM) and the percent of LDH released after 24 hr was determined as a measure of cell death at a concentration of 0.561 mM (expt II); format: functional
[14] = species on record: Mus musculus; experiment: Toxicity toward P-815 Mastocytoma cells after 5 hr was determined as percent of [51Cr]- release from labeled cells as a measure of cell death. at a concentration of 0.282 mM. (expt IV); format: functional

## CCCCCCCCCCCCNC(=O)[C@@H](Cc1ccccc1)NC(=O)CN
[1]
  Toxicity: 200 µg/mL
[2]
  LDH release: 78%
[3]
  Cr release: 95%
[4]
  Toxicity: 210 µg/mL
[5]
  LDH release: 85%
[6]
  Toxicity: 100 µg/mL

## NC(=O)[C@H](Cc1ccccc1)NC(=O)CNC(=O)OCc1ccccc1
[7]
  Cr release: 17%

## CCCCCCCCCCCCNCC(F)(F)F
[8]
  Cr release: 15%
[2]
  LDH release: 64%
[5]
  LDH release: 52%
[9]
  Activity: OK

## O=C(CNC(=O)OCc1ccccc1)N[C@@H](Cc1ccccc1)C(=O)N(CCCl)CCCl
[10]
  Cr release: 16%
[11]
  Toxicity: 100 µg/mL

## O=C(CNC(=O)OCc1ccccc1)N[C@H](Cc1ccccc1)C(=O)O (Cbz-Gly-[dF]-OH)
[12]
  Cr release: 16%
[13]
  LDH release: 17%

## NC(=O)[C@@H](Cc1ccccc1)NC(=O)CNC(=O)OCc1ccccc1
[14]
  Cr release: 17%
